Data: the NIST ThermoML archive (doi:10.1016/j.fluid.2016.08.002)

Experiment: xn = mol fraction of the nth substance listed
Conditions: Gas, Vibrating tube method

S [hydrogen sulfide] + C
Conditions | mass density [kg/m3]
293.23 K, 18686 kPa, x2 = 0.8685 | 200.27
293.23 K, 19770 kPa, x2 = 0.8685 | 210.3
293.23 K, 22173 kPa, x2 = 0.8685 | 230.34
293.23 K, 22860 kPa, x2 = 0.8685 | 235.56
293.27 K, 193 kPa, x2 = 0.8197 | 1.54
293.27 K, 227 kPa, x2 = 0.714 | 1.99
293.27 K, 498 kPa, x2 = 0.8197 | 4.03
293.27 K, 560 kPa, x2 = 0.714 | 4.92
293.27 K, 7261 kPa, x2 = 0.714 | 85.92
293.27 K, 7749 kPa, x2 = 0.714 | 94.83
293.28 K, 1101 kPa, x2 = 0.714 | 9.72
293.28 K, 1547 kPa, x2 = 0.714 | 14.1
293.28 K, 2065 kPa, x2 = 0.714 | 19.16
293.28 K, 8092 kPa, x2 = 0.714 | 103.64
293.29 K, 2976 kPa, x2 = 0.714 | 28.53
293.29 K, 3489 kPa, x2 = 0.714 | 33.95
293.29 K, 8523 kPa, x2 = 0.714 | 108.8
293.29 K, 10516 kPa, x2 = 0.714 | 145.41
293.29 K, 11236 kPa, x2 = 0.714 | 161.66
293.29 K, 13780 kPa, x2 = 0.714 | 213.21
293.29 K, 19219 kPa, x2 = 0.8685 | 205.31
293.29 K, 23988 kPa, x2 = 0.714 | 321.16
293.29 K, 25012 kPa, x2 = 0.714 | 327.5
293.3 K, 2511 kPa, x2 = 0.714 | 23.63
293.3 K, 9149 kPa, x2 = 0.714 | 119.96
293.3 K, 9741 kPa, x2 = 0.714 | 129.36
293.3 K, 11789 kPa, x2 = 0.714 | 174.33
293.3 K, 13528 kPa, x2 = 0.714 | 208.17
293.3 K, 14426 kPa, x2 = 0.714 | 223.09
293.3 K, 15049 kPa, x2 = 0.714 | 233.3
293.3 K, 15503 kPa, x2 = 0.714 | 239.94
293.3 K, 22979 kPa, x2 = 0.714 | 314.55
293.3 K, 23460 kPa, x2 = 0.714 | 317.83
293.3 K, 24512 kPa, x2 = 0.714 | 324.48
293.3 K, 25515 kPa, x2 = 0.714 | 330.43
293.3 K, 25988 kPa, x2 = 0.714 | 333.07
293.31 K, 6513 kPa, x2 = 0.8197 | 63.51
293.31 K, 6885 kPa, x2 = 0.714 | 80.49
293.31 K, 12964 kPa, x2 = 0.714 | 198.31
293.31 K, 14523 kPa, x2 = 0.714 | 224.65
293.31 K, 16108 kPa, x2 = 0.714 | 249.28
293.31 K, 21026 kPa, x2 = 0.714 | 300.53
293.31 K, 22118 kPa, x2 = 0.714 | 308.67
293.31 K, 22512 kPa, x2 = 0.714 | 311.24
293.31 K, 23712 kPa, x2 = 0.714 | 319.93
293.31 K, 26506 kPa, x2 = 0.714 | 335.86
293.32 K, 5019 kPa, x2 = 0.8197 | 46.91
293.32 K, 5508 kPa, x2 = 0.8197 | 52.59
293.32 K, 5943 kPa, x2 = 0.714 | 66.82
293.32 K, 7004 kPa, x2 = 0.8197 | 68.5
293.32 K, 7520 kPa, x2 = 0.8197 | 74.89
293.32 K, 8507 kPa, x2 = 0.8197 | 87.23
293.32 K, 9526 kPa, x2 = 0.8197 | 100.87
293.32 K, 10518 kPa, x2 = 0.8197 | 114.24
293.32 K, 12220 kPa, x2 = 0.714 | 183.56
293.32 K, 12521 kPa, x2 = 0.714 | 189.88
293.32 K, 22053 kPa, x2 = 0.714 | 308.34
293.33 K, 1434 kPa, x2 = 0.8197 | 12.03
293.33 K, 3440 kPa, x2 = 0.8197 | 30.85
293.33 K, 6464 kPa, x2 = 0.714 | 75.29
293.33 K, 8008 kPa, x2 = 0.8197 | 80.89
293.33 K, 9072 kPa, x2 = 0.8197 | 94.8
293.33 K, 10169 kPa, x2 = 0.714 | 136.99
293.33 K, 10922 kPa, x2 = 0.8197 | 121.63
293.33 K, 18012 kPa, x2 = 0.714 | 271.26
293.33 K, 18543 kPa, x2 = 0.714 | 276.99
293.33 K, 19012 kPa, x2 = 0.714 | 281.75
293.33 K, 19476 kPa, x2 = 0.714 | 286.23
293.33 K, 21863 kPa, x2 = 0.714 | 306.8
293.33 K, 26879 kPa, x2 = 0.714 | 337.31
293.33 K, 29517 kPa, x2 = 0.714 | 349.82
293.33 K, 29998 kPa, x2 = 0.714 | 352.02
293.34 K, 6006 kPa, x2 = 0.8197 | 58.11
293.34 K, 14027 kPa, x2 = 0.8197 | 162.75
293.34 K, 14501 kPa, x2 = 0.8197 | 169.12
293.34 K, 16524 kPa, x2 = 0.714 | 253.44
293.34 K, 17035 kPa, x2 = 0.714 | 260.09
293.34 K, 20081 kPa, x2 = 0.714 | 291.58
293.34 K, 20504 kPa, x2 = 0.714 | 295.67
293.34 K, 22090 kPa, x2 = 0.8197 | 248.06
293.35 K, 936 kPa, x2 = 0.8197 | 7.74
293.35 K, 2422 kPa, x2 = 0.8197 | 20.5
293.35 K, 4502 kPa, x2 = 0.8197 | 41.72
293.35 K, 11685 kPa, x2 = 0.8197 | 130.63
293.35 K, 17740 kPa, x2 = 0.714 | 267.95
293.35 K, 21512 kPa, x2 = 0.8197 | 243.53
293.36 K, 1962 kPa, x2 = 0.8197 | 16.56
293.36 K, 12068 kPa, x2 = 0.8197 | 136.11
293.36 K, 12506 kPa, x2 = 0.8197 | 142.15
293.36 K, 13036 kPa, x2 = 0.8197 | 149.41
293.36 K, 13500 kPa, x2 = 0.8197 | 155.72
293.37 K, 10013 kPa, x2 = 0.8197 | 107.38
293.37 K, 15006 kPa, x2 = 0.8197 | 175.59
293.37 K, 22488 kPa, x2 = 0.8197 | 251.05
293.37 K, 26028 kPa, x2 = 0.8197 | 274.53
293.37 K, 27520 kPa, x2 = 0.8197 | 283
293.37 K, 29405 kPa, x2 = 0.8197 | 292.65
293.37 K, 29932 kPa, x2 = 0.8197 | 295.13
293.38 K, 2915 kPa, x2 = 0.8197 | 26.63
293.38 K, 27986 kPa, x2 = 0.8197 | 285.56
293.38 K, 28437 kPa, x2 = 0.8197 | 287.96
293.38 K, 28979 kPa, x2 = 0.8197 | 290.66
293.39 K, 5407 kPa, x2 = 0.714 | 58.83
293.39 K, 22971 kPa, x2 = 0.8197 | 254.58
293.39 K, 24024 kPa, x2 = 0.8197 | 261.83
293.39 K, 24659 kPa, x2 = 0.8197 | 266.01
293.4 K, 17009 kPa, x2 = 0.8197 | 200
293.4 K, 29019 kPa, x2 = 0.714 | 347.54
293.41 K, 16017 kPa, x2 = 0.8197 | 188.26
293.41 K, 17526 kPa, x2 = 0.8197 | 205.67
293.41 K, 19019 kPa, x2 = 0.8197 | 221.14
293.41 K, 19519 kPa, x2 = 0.8197 | 225.91
293.41 K, 20054 kPa, x2 = 0.8197 | 230.93
293.41 K, 21059 kPa, x2 = 0.8197 | 239.83
293.41 K, 23490 kPa, x2 = 0.8197 | 258.21
293.41 K, 25538 kPa, x2 = 0.8197 | 271.56
293.41 K, 27022 kPa, x2 = 0.8197 | 280.18
293.42 K, 3851 kPa, x2 = 0.714 | 38.01
293.42 K, 3941 kPa, x2 = 0.8197 | 35.88
293.42 K, 18033 kPa, x2 = 0.8197 | 211.2
293.42 K, 18536 kPa, x2 = 0.8197 | 216.41
293.42 K, 20511 kPa, x2 = 0.8197 | 234.95
293.42 K, 25034 kPa, x2 = 0.8197 | 268.44
293.42 K, 26523 kPa, x2 = 0.8197 | 277.36
293.42 K, 28586 kPa, x2 = 0.714 | 345.52
293.43 K, 4386 kPa, x2 = 0.714 | 46.59
293.43 K, 28085 kPa, x2 = 0.714 | 343.33
293.44 K, 4823 kPa, x2 = 0.714 | 51.27
293.45 K, 15532 kPa, x2 = 0.8197 | 182.32
293.45 K, 16485 kPa, x2 = 0.8197 | 193.92
293.53 K, 27520 kPa, x2 = 0.714 | 340.85
293.64 K, 27145 kPa, x2 = 0.714 | 339.08
